For three compounds, IC50 results are on record in patent US10081647B2, “Phosphate substituted quinolizine derivatives useful as HIV integrase inhibitors” (Merck Sharp & Dohme Corp., priority 2015, dated 2018).

Read-outs that look alike come from different tables or passages of the source. Where only a bound is given, the exact number is not on record here.

The test system of this assay is HIV-1 (NL4-3 strain). As to the kind of experiment: Assay for inhibition of HIV replication (MT4-gag-GFP reporter cell line, kinetic assay). Format: cell-based. The following applies: IP from 4-parameter dose response curve. As for the experimental part: This assay is useful for assessing the ability of a compound of the present inventiongin to inhibit HIV replication. The assay is a kinetic assay that employs a reporter cell line (MT4-gag-GFP) to quantify the number of new cells infected in each round of replication.
MT4-GFP cells (250,000 cells/ml) are bulk-infected with HIV-1 (NL4-3 strain) at low multiplicity of infection (MOI) in RPMI+10% FBS for 24 hours. Cells are then washed once in RPMI+10% FBS and resuspended in RPMI+0% or 10% or 100% normal human serum (NHS). Test compounds are serial-diluted in DMSO using an ECHO liquid handler. The infected MT4-GFP cells are added to a 384-well poly-D-lysine coated black plate with clear bottom in which the diluted test compounds are placed. The cells are seeded at 8,000 cells per well and the final DMSO concentration is adjusted to 0.4%. The infected cells (Green GFP cells) are then quantified at both 24 and 48 hours post incubation using Acumen eX3. Viral reproductive ratio (R0) is determined using the number of infected cells at 48 hours divided by the number of infected cells at 24 hours. Percent viral growth inhibition is calculated by [1−(R−Rtripledrug)/(RDMSO−Rtripledrug)]*100. Compound potency IP or IC50 can be determined using a 4-parameter dose response curve analysis.

Setting [1] is: infected MT4-GFP cells in 100% normal human serum, read-out: WILD TYPE CELL ASSAY Viking IP (100% NHS).
Where [2] appears, read: infected MT4-GFP cells in RPMI + 0% normal human serum, read-out: WILD TYPE CELL ASSAY Viking IP (0% NHS).

For the compound `COC1Cn2cc(C(=O)NCc3ccc(F)cc3F)c(=O)c(O)c2C(=O)C1(C)CCOCCP(=O)(OCOC(=O)OC(C)C)OCOC(=O)OC(C)C` (stereo not drawn) [Compound 64], the IC50 by setting is: under setting [1], 0.289 µM; under setting [2], 0.0029 µM.

With `COCCC1(C)C(=O)c2c(O)c(=O)c(C(=O)NCc3ccc(F)cc3F)cn2CC1OCCP(=O)(OCOC(=O)OC(C)C)OCOC(=O)OC(C)C` (stereo not drawn) [Compound 88], the IC50 reads like this: under setting [1], 0.029 µM; under setting [2], 0.0009 µM.

Consider `COC1Cn2cc(C(=O)NCc3ccc(F)cc3F)c(=O)c(O)c2C(=O)C1(C)COCCP(=O)(O)O` (stereo not drawn) [Compound 37], for which the IC50 by setting is: under setting [1], more than 8 µM; under setting [2], more than 1 µM.
